These results are taken from patent publication US5753673A, “Quinolinecarboxylic acid derivatives” (Taisho Pharmaceutical Co., Ltd., priority 1994, dated 1998).

Each structure is given as a SMILES string. Counter-ions that a name gives are not always drawn.

The target of the first assay is T1, serotonin 4 receptor (5-HT4) (Cavia porcellus, UniProt O70528).
T1 construct: from tissue; host or cells: longitudinal muscle strips of guinea pig ileum (Harley guinea pigs)
T1 sequence (O70528 whole entry): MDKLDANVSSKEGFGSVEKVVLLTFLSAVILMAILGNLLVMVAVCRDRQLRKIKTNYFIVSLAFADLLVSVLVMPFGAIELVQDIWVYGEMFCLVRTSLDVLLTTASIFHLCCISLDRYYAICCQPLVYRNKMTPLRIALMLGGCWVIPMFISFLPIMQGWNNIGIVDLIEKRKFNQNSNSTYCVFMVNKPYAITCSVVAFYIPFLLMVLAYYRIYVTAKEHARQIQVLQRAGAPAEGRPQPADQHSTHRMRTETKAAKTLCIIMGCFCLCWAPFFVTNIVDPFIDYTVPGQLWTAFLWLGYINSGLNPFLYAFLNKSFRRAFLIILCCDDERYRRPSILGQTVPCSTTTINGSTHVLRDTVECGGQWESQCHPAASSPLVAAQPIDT
The experiment in a line: Stimulating activity on serotonin 4 receptor (twitch response in guinea pig ileum).
Conditions: not given
In kind it is cell-based. How it is done:
Stimulating activity on serotonin 4 receptor
From Harley guinea pigs weighing 250 to 400 g, a section of ileum 10 to 20 cm proximal to the ileocecal junction was removed. Longitudinal muscle strips obtained from the ileum were used for this assay. The preparations were suspended in Krebs' solution at 32 to 34° C., bubbled continuously with 95% O2 and 5% CO2, and subjected to initial tension of about 0.8 g. Responses were recorded isometrically. Twitch responses were evoked by electrical stimulation (0.2 Hz, 1 msec pulse duration). The preparations were stimulated at supramaximal voltage for 2 to 3 hours, and were then allowed to equilibrate for about 1 hour at submaximal voltage. […] The preparations were left for at least 45 minutes before cumulative addition of each agonist.
The quinolinecarboxylic acid derivatives of the present invention were employed as sample compounds. For comparison, the following compounds were employed. These compounds were diluted by dissolving them in distilled water or in DMSO.
The data obtained was analyzed by RS1 (BBN Software Product Co.).
As to `CCOC(=O)CCCN1[C@@H]2CC[C@H]1C[C@@H](OC(=O)c1cc3ccccc3n(C(C)C)c1=O)C2` [Compound 51, Endo-8-(3-(ethoxycarbonyl)propyl)-8-azabicyclo[3.2.1]oct-3-yl 1-isopropyl-2-oxo-1,2-dihydro-3-quinolinecarboxylate hydrochloride], the EC50 was 23 nM.

Turning to `CC(C)n1c(=O)c(C(=O)NC2CC3CCC(C2)N3CC2CCCCO2)cc2ccccc21` (stereo not drawn) [Compound 22, Endo-N-(8-(tetrahydropyran-2-methyl)-8-azabicyclo[3.2.1]oct-3-yl)-1-isopropyl-2-oxo-1,2-dihydro-3-quinolinecarboxamide], the EC50 is 24 nM.

In turn, `CCOC(=O)CCCN1C2CCC1CC(NC(=O)c1cc3ccccc3n(C(C)C)c1=O)C2` (stereo not drawn) [Compound 27, Endo-N-(8-(3-(ethoxycarbonyl)propyl)-8-azabicyclo[3.2.1]oct-3-yl)-1-isopropyl-2-oxo-1,2-dihydro-3-quinolinecarboxamide hydrochloride] returned an EC50 of 19.3 nM.

In turn, `CC(C)n1c(=O)c(C(=O)NC2CC3CCC(C2)N3CC(N)=O)cc2ccccc21` (stereo not drawn) [Compound 34, Endo-N-(8-carbamoylmethyl-8-azabicyclo[3.2.1]oct-3-yl)-1-isopropyl-2-oxo-1,2-dihydro-3-quinolinecarboxamide] returned an EC50 of 61.9 nM.

`C=CCN1C2CCC1CC(OC(=O)c1cc3ccccc3n(C(C)C)c1=O)C2` (stereo not drawn) [Compound 35, endo-8-(2-propenyl)-8-azabicyclo[3.2.1]oct-3-yl 1-isopropyl-2-oxo-1,2-dihydro-3-quinolinecarboxylate hydrochloride] returned an EC50 of 54.4 nM.

Take `CCOCCN1[C@@H]2CC[C@H]1C[C@@H](OC(=O)c1cc3ccccc3n(C(C)C)c1=O)C2` [Compound 43, Endo-8-(2-ethoxyethyl)-8-azabicyclo[3.2.1]oct-3-yl 1-isopropyl-2-oxo-1,2-dihydro-3-quinolinecarboxylate hydrochloride]: the EC50 was found to be 15.2 nM.

Regarding `CC(=O)CCCN1[C@@H]2CC[C@H]1C[C@@H](OC(=O)c1cc3ccccc3n(C(C)C)c1=O)C2` [Compound 53, Endo-8-(4-oxopentyl)-8-azabicyclo[3.2.1]oct-3-yl 1-isopropyl-2-oxo-1,2-dihydro-3-quinolinecarboxylate hydrochloride], the EC50 came out at 26.4 nM.

For `CC(C)n1c(=O)c(C(=O)NC2CC3CCC(C2)N3CC(=O)O)cc2ccccc21` (stereo not drawn) [Compound 26, Endo-N-(8-(carboxymethyl)-8-azabicyclo[3.2.1]oct-3-yl)-1-isopropyl-2-oxo-1,2-dihydro-3-quinolinecarboxamide], the EC50 is 66.1 nM.

Compound `CC(C)n1c(=O)c(C(=O)O[C@H]2C[C@H]3CC[C@@H](C2)N3CCOc2ccccc2)cc2ccccc21` [Compound 49, Endo-8-(2-phenoxyethyl)-8-azabicyclo[3.2.1]oct-3-yl 1-isopropyl-2-oxo-1,2-dihydro-3-quinolinecarboxylate hydrochloride] registered an EC50 of 39 nM.

As to `C=CCN1C2CCC1CC(NC(=O)c1cc3ccccc3n(C(C)C)c1=O)C2` (stereo not drawn) [Compound 1, endo-N-(8-(2-propenyl)-8-azabicyclo[3.2.1]oct-3-yl)-1-isopropyl-2-oxo-1,2-dihydro-3-quinolinecarboxamide], the EC50 amounted to 59.2 nM.

In turn, `CC(C)n1c(=O)c(C(=O)NC2CC3CCC(C2)N3CCCCCO)cc2ccccc21` (stereo not drawn) [Compound 7, Endo-N-(8-(5-hydroxypentyl)-8-azabicyclo[3.2.1]oct-3-yl)-1-isopropyl-2-oxo-1,2-dihydro-3-quinolinecarboxamide] yielded an EC50 of 30.8 nM.

The assay is the same for the next values; noted with them: twitch response in guinea pig ileum; maximum contraction of sample compound = 100%; read-out: ED50 (concentration enhancing the twitch response by 50%).
On to `CN1[C@@H]2CC[C@H]1C[C@@H](OC(=O)c1cc3ccccc3[nH]c1=O)C2` [Comparative Compound 3, reference compound], for which the EC50 is more than 3000 nM.

Turning to `COc1ccc(N2[C@@H]3CC[C@H]2C[C@@H](OC(=O)c2cc4ccccc4n(C(C)C)c2=O)C3)cc1` [Compound 57, endo-8-(4-methoxyphenyl)-8-azabicyclo[3.2.1]oct-3-yl 1-isopropyl-2-oxo-1,2-dihydro-3-quinolinecarboxylate, reference compound], the EC50 was more than 3000 nM.
